DBAASP
In brackets after ≈: the same amount, converted by molar mass. Several values for one entry are separate records, joined by “and”; a condition that tells them apart may be missing. Equal values may be shown once.

Key:
Assay in all cases: ≥ marks a high value that may be exact or a test limit, other limits are often not marked, values filed in µg/mL are converted to µM
[1] = tested on: Enterococcus faecalis ATCC 29212
[2] = tested on: Salmonella enterica serovar Typhimurium
Escherichia coli UB1005 = tested on: Escherichia coli UB1005
[3] = tested on: Staphylococcus aureus ATCC 25923
Candida albicans = tested on: Candida albicans
[4] = tested on: Staphylococcus epidermidis
[5] = tested on: Pseudomonas aeruginosa H103
[6] = tested on: Staphylococcus aureus ATCC 29213
[7] = tested on: Klebsiella aerogenes ATCC 13048
[8] = tested on: Bacillus cereus ATCC 11778
[9] = tested on: Salmonella enterica subsp. enterica serovar Typhimurium ATCC 14028
[10] = tested on: Escherichia coli ATCC 25922
[11] = tested on: Staphylococcus aureus ATCC 33591
[12] = tested on: Klebsiella pneumoniae ATCC 700603
[13] = tested on: Staphylococcus aureus ATCC 700699
[14] = tested on: Pseudomonas aeruginosa ATCC 27853
Acinetobacter baumannii = tested on: Acinetobacter baumannii
Enterococcus faecium = tested on: Enterococcus faecium
[15] = tested on: Staphylococcus aureus ATCC 43300
Pseudomonas aeruginosa = tested on: Pseudomonas aeruginosa
Streptococcus pneumoniae = tested on: Streptococcus pneumoniae
Klebsiella pneumoniae = tested on: Klebsiella pneumoniae
[16] = tested on: Staphylococcus aureus ATCC BAA-1556
[17] = tested on: Staphylococcus aureus SAP 0017
Bacillus subtilis = tested on: Bacillus subtilis
Salmonella typhimurium = tested on: Salmonella typhimurium
Proteus vulgaris = tested on: Proteus vulgaris
Escherichia coli = tested on: Escherichia coli
Streptococcus pyogenes = tested on: Streptococcus pyogenes

MIC [6] | MIC [10] | MIC [11] | MIC [12] | MIC [13] | MIC [14] | SMILES | other results
– | – | – | – | – | – | NCCCC[C@H](NC(=O)[C@H](Cc1c[nH]c2ccccc12)NC(=O)[C@H](Cc1c[nH]c2ccccc12)NC(=O)[C@H](CCCN=C(N)N)NC(=O)[C@@H](N)CCCN=C(N)N)C(=O)N[C@@H](Cc1c[nH]c2ccccc12)C(=O)N[C@@H](Cc1c[nH]c2ccccc12)C(=O)N[C@@H](Cc1c[nH]c2ccccc12)C(=O)N[C@@H](CCCN=C(N)N)C(=O)O [RRWWKWWWR] | MIC [1]: 5.4 µM (≈ 8.35 µg/mL); MIC [2]: 2.7 µM (≈ 4.17 µg/mL); MIC (Escherichia coli UB1005): 2.7 µM (≈ 4.17 µg/mL); MIC [3]: 0.7 µM (≈ 1.08 µg/mL); MIC (Candida albicans): 5.4 µM (≈ 8.35 µg/mL); MIC [4]: 0.7 µM (≈ 1.08 µg/mL); MIC [5]: 5.4 µM (≈ 8.35 µg/mL)
> 70.4 µM | > 70.4 µM | – | – | – | – | CC[C@H](C)[C@H](N)C(=O)N[C@@H](CC(C)C)C(=O)NCC(=O)N[C@@H](CCCCN)C(=O)N[C@@H](C)C(=O)N[C@@H](Cc1c[nH]c2ccccc12)C(=O)N[C@@H](CCC(=O)O)C(=O)NCC(=O)N[C@@H](C)C(=O)N[C@@H](CCCCN)C(=O)N[C@@H](CO)C(=O)N[C@@H](CC(C)C)C(=O)N[C@@H](Cc1ccccc1)C(N)=O [ILGKAWEGAKSLF] | MIC [7]: ≥ 70.4 µM; MIC [8]: ≥ 70.4 µM; MIC [9]: > 70.4 µM
> 100 µM | > 100 µM | ≥ 100 µM | > 100 µM | ≥ 100 µM | > 100 µM | CC[C@H](C)[C@H](NC(=O)[C@H](CC(=O)O)NC(=O)[C@H](CCCCN)NC(=O)[C@H](C)NC(=O)[C@H](C)NC(=O)CNC(=O)[C@H](CCCCN)NC(=O)[C@H](CC(C)C)NC(=O)[C@@H](NC(=O)[C@H](CC(=O)O)NC(=O)[C@@H](NC(=O)[C@@H](NC(=O)CN)C(C)C)C(C)C)[C@@H](C)CC)C(=O)N[C@@H](C)C(=O)NCC(=O)N[C@@H](Cc1cnc[nH]1)C(=O)N[C@@H](CC(C)C)C(=O)N[C@@H](C)C(=O)N[C@@H](CO)C(=O)N[C@@H](CCCCN)C(=O)N[C@@H](C)C(=O)N[C@@H](CCSC)C(=O)N[C@@H](CC(N)=O)C(=O)N[C@@H](CCCCN)C(=O)N[C@@H](CC(C)C)C(N)=O [GVVDILKGAAKDIAGHLASKAMNKL] | –
– | 3 µM (≈ 6.97 µg/mL) | – | – | – | – | CC[C@H](C)[C@H](NC(=O)CNC(=O)[C@H](Cc1cnc[nH]1)NC(=O)CNC(=O)CN)C(=O)N[C@@H](CCCN=C(N)N)C(=O)N[C@@H](CCCN=C(N)N)C(=O)N[C@H](C(=O)N[C@H](C(=O)N[C@@H](CCCN=C(N)N)C(=O)N[C@@H](CCCCN)C(=O)N[C@H](C(=O)N[C@H](C(=O)N[C@@H](Cc1cnc[nH]1)C(=O)N[C@H](C(=O)N[C@H](C(=O)N[C@@H](CCCCN)C(=O)N[C@@H](CCCCN)C(=O)NCC(=O)NCC(=O)N[C@@H](CS)C(N)=O)[C@@H](C)CC)[C@@H](C)CC)[C@@H](C)CC)[C@@H](C)CC)[C@@H](C)CC)[C@@H](C)CC [GGHGIRRIIRKIIHIIKKGGC] | MIC (Acinetobacter baumannii): 9.3 µM (≈ 21.6 µg/mL); MIC (Enterococcus faecium): 8 µM (≈ 18.6 µg/mL); MIC [15]: 4 µM (≈ 9.3 µg/mL); MIC (Pseudomonas aeruginosa): 12 µM (≈ 27.9 µg/mL); MIC (Streptococcus pneumoniae): 8 µM (≈ 18.6 µg/mL); MIC (Klebsiella pneumoniae): > 16 µM
– | – | – | – | – | – | CC(C)C[C@H](NC(=O)[C@H](CC(C)C)NC(=O)[C@H](CC(C)C)NC(=O)[C@H](CCCCN)NC(=O)[C@H](CC(C)C)NC(=O)[C@@H](N)CC(C)C)C(=O)N[C@@H](CCCCN)C(N)=O [LLKLLLK] | MIC [16]: ≥ 100 µM
> 100 µM | > 100 µM | ≥ 100 µM | > 100 µM | ≥ 100 µM | > 100 µM | CC[C@H](C)[C@H](NC(=O)[C@H](CC(=O)O)NC(=O)[C@@H](NC(=O)[C@@H](NC(=O)CN)C(C)C)C(C)C)C(=O)N[C@@H](CC(C)C)C(=O)N[C@@H](CCCCN)C(=O)NCC(=O)N[C@@H](C)C(=O)N[C@@H](C)C(=O)N[C@@H](CCCCN)C(=O)N[C@@H](CC(=O)O)C(=O)N[C@@H](C)C(=O)N[C@@H](C)C(=O)NCC(=O)N[C@@H](Cc1cnc[nH]1)C(=O)N[C@@H](CC(C)C)C(=O)N[C@@H](C)C(=O)N[C@@H](CO)C(=O)N[C@@H](CCCCN)C(=O)N[C@H](C(=O)N[C@@H](CCSC)C(=O)N[C@@H](CC(N)=O)C(=O)N[C@@H](CCCCN)C(=O)N[C@@H](CC(C)C)C(N)=O)C(C)C [GVVDILKGAAKDAAGHLASKVMNKL] | –
– | – | – | – | – | – | CC[C@H](C)[C@H](NC(=O)[C@H](Cc1c[nH]c2ccccc12)NC(=O)[C@H](CCCN=C(N)N)NC(=O)[C@@H](N)CCCN=C(N)N)C(=O)N[C@@H](CCCN=C(N)N)C(=O)N[C@@H](Cc1c[nH]c2ccccc12)C(=O)N[C@@H](CC(C)C)C(N)=O [RRWIRWL] | MIC [16]: ≥ 100 µM
> 100 µM | > 100 µM | ≥ 100 µM | > 100 µM | ≥ 100 µM | > 100 µM | CC[C@H](C)[C@H](NC(=O)[C@H](CC(=O)O)NC(=O)[C@H](CCCCN)NC(=O)[C@H](C)NC(=O)[C@H](C)NC(=O)CNC(=O)[C@H](CCCCN)NC(=O)[C@H](CC(C)C)NC(=O)[C@@H](NC(=O)[C@H](CC(=O)O)NC(=O)[C@@H](NC(=O)[C@@H](NC(=O)CN)C(C)C)C(C)C)[C@@H](C)CC)C(=O)N[C@@H](C)C(=O)NCC(=O)N[C@@H](Cc1cnc[nH]1)C(=O)N[C@@H](C)C(=O)N[C@@H](CO)C(=O)N[C@@H](CCCCN)C(=O)N[C@H](C(=O)N[C@@H](CCSC)C(=O)N[C@@H](CC(N)=O)C(=O)N[C@@H](CCCCN)C(=O)N[C@@H](CC(C)C)C(N)=O)C(C)C [GVVDILKGAAKDIAGHASKVMNKL] | –
– | – | – | – | – | – | CC(C)C[C@H](NC(=O)[C@H](CC(C)C)NC(=O)[C@H](CCCCN)NC(=O)[C@H](CC(C)C)NC(=O)[C@H](CC(C)C)NC(=O)[C@H](CC(C)C)NC(=O)[C@@H](N)CCCCN)C(N)=O [KLLLKLL] | MIC [16]: ≥ 100 µM
– | – | – | – | – | – | CC[C@H](C)[C@H](N)C(=O)N[C@@H](CC(C)C)C(=O)N[C@H](C(=O)N[C@@H](CCCN=C(N)N)C(=O)N[C@@H](Cc1c[nH]c2ccccc12)C(=O)N[C@H](C(=O)N[C@@H](CCCN=C(N)N)C(=O)N[C@@H](Cc1c[nH]c2ccccc12)C(=O)N[C@@H](CCCN=C(N)N)C(=O)N[C@H](C(=O)N[C@@H](CCC(N)=O)C(=O)N[C@@H](Cc1c[nH]c2ccccc12)C(N)=O)[C@@H](C)CC)[C@@H](C)CC)C(C)C [ILVRWIRWRIQW] | MIC [17]: 2 µM and 4 µM
> 100 µM | 100 µM (≈ 249 µg/mL) | ≥ 100 µM | > 100 µM | ≥ 100 µM | > 100 µM | CC[C@H](C)[C@H](NC(=O)[C@H](CC(=O)O)NC(=O)[C@H](C)NC(=O)[C@H](C)NC(=O)[C@H](C)NC(=O)CNC(=O)[C@H](CCCCN)NC(=O)[C@H](CC(C)C)NC(=O)[C@@H](NC(=O)[C@H](CC(=O)O)NC(=O)[C@@H](NC(=O)[C@@H](NC(=O)CN)C(C)C)C(C)C)[C@@H](C)CC)C(=O)N[C@@H](C)C(=O)NCC(=O)N[C@@H](Cc1cnc[nH]1)C(=O)N[C@@H](CC(C)C)C(=O)N[C@@H](C)C(=O)N[C@@H](CO)C(=O)N[C@@H](CCCCN)C(=O)N[C@H](C(=O)N[C@@H](CCSC)C(=O)N[C@@H](CC(N)=O)C(=O)N[C@@H](CCCCN)C(=O)N[C@@H](CC(C)C)C(N)=O)C(C)C [GVVDILKGAAADIAGHLASKVMNKL] | –
– | – | – | – | – | – | CC(C)C[C@H](NC(=O)[C@H](CCCN=C(N)N)NC(=O)[C@@H]1CCCN1C(=O)[C@H](Cc1cnc[nH]1)NC(=O)[C@@H]1CCCN1C(=O)[C@@H]1CCCN1C(=O)[C@H](CCCN=C(N)N)NC(=O)[C@@H]1CCCN1C(=O)[C@@H]1CCCN1C(=O)[C@H](Cc1cnc[nH]1)NC(=O)[C@@H]1CCCN1C(=O)[C@@H]1CCCN1C(=O)[C@H](CCCN=C(N)N)NC(=O)[C@@H]1CCCN1)C(=O)O [PRPPHPPRPPHPRL] | MIC (Bacillus subtilis): ≥ 64 µM; MIC (Salmonella typhimurium): 0.5 µM (≈ 0.825 µg/mL); MIC (Proteus vulgaris): ≥ 64 µM; MIC (Escherichia coli): 8 µM (≈ 13.2 µg/mL); MIC (Pseudomonas aeruginosa): 64 µM (≈ 106 µg/mL); MIC [4]: ≥ 64 µM; MIC (Streptococcus pyogenes): ≥ 64 µM
